{"source": "PubChem BioAssay AID1963832", "about": "(Molecular Pharmacology Branch, DTP, NCI, 2024);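 also: spheroids exposed to compounds for 7 days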", "test_system": "885724-159-R-J1-PDC complex spheroid viability", "test": "Anticancer human tumor 885724-159-R-J1-PDC patient-derived pancreatic adenocarcinoma cell line growth inhibition [POLQ]", "conditions": "for IC50: curve of first compound; for viability, T/C: stronger effect = lower value", "procedure,_shortened": "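PDC + HUVEC + MSC complex spheroids; POLQ inhibitors ± partner drugs; top conc. at/near clinical Cmax, else 10 microM (SN-38 1 microM), half-log dilutions; 37 degrees C, 5% CO2.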"}
{"smiles": "CC1COCCN1c1cc(C2(O)CC3CCC(C2)O3)c2cnn(-c3ccn[nH]3)c2n1", "note": "(configuration not stated) + Nc1ccc(C#CCN(C(=O)Cc2ncc(C(F)(F)F)cc2C(F)(F)F)c2ccc(F)cc2)nn1", "values": [{"measurement": "IC50", "setting": "second compound 0.0316 µM", "result": 321, "unit": "nM"}, {"measurement": "IC50", "setting": "second compound 0.1 µM", "result": 237, "unit": "nM"}, {"measurement": "IC50", "setting": "second compound 0.316 µM", "result": 177, "unit": "nM"}, {"measurement": "IC50", "setting": "second compound 1 µM", "result": 237, "unit": "nM"}, {"measurement": "IC50", "setting": "second compound 3.16 µM", "result": 202, "unit": "nM"}, {"measurement": "IC50", "setting": "second compound 10 µM", "result": 236, "unit": "nM"}, {"measurement": "viability, T/C", "setting": "second compound 0.0316 µM, first compound 0.0316 µM", "result": 72.7, "unit": "%"}, {"measurement": "viability, T/C", "setting": "second compound 0.0316 µM, first compound 0.1 µM", "result": 54.7, "unit": "%"}, {"measurement": "viability, T/C", "setting": "second compound 0.0316 µM, first compound 0.316 µM", "result": 50.8, "unit": "%"}, {"measurement": "viability, T/C", "setting": "second compound 0.0316 µM, first compound 1 µM", "result": 42.6, "unit": "%"}, {"measurement": "viability, T/C", "setting": "second compound 0.0316 µM, first compound 3.16 µM", "result": 36.3, "unit": "%"}, {"measurement": "viability, T/C", "setting": "second compound 0.0316 µM, first compound 10 µM", "result": 26.8, "unit": "%"}, {"measurement": "viability, T/C", "setting": "second compound 0.1 µM, first compound 0.0316 µM", "result": 77.8, "unit": "%"}, {"measurement": "viability, T/C", "setting": "second compound 0.1 µM, first compound 0.1 µM", "result": 58.3, "unit": "%"}, {"measurement": "viability, T/C", "setting": "second compound 0.1 µM, first compound 0.316 µM", "result": 46.2, "unit": "%"}, {"measurement": "viability, T/C", "setting": "second compound 0.1 µM, first compound 1 µM", "result": 40.6, "unit": "%"}, {"measurement": "viability, T/C", "setting": "second compound 0.1 µM, first compound 3.16 µM", "result": 37.4, "unit": "%"}, {"measurement": "viability, T/C", "setting": "second compound 0.1 µM, first compound 10 µM", "result": 31.4, "unit": "%"}, {"measurement": "viability, T/C", "setting": "second compound 0.316 µM, first compound 0.0316 µM", "result": 72.4, "unit": "%"}, {"measurement": "viability, T/C", "setting": "second compound 0.316 µM, first compound 0.1 µM", "result": 52.5, "unit": "%"}, {"measurement": "viability, T/C", "setting": "second compound 0.316 µM, first compound 0.316 µM", "result": 45.2, "unit": "%"}, {"measurement": "viability, T/C", "setting": "second compound 0.316 µM, first compound 1 µM", "result": 38.9, "unit": "%"}, {"measurement": "viability, T/C", "setting": "second compound 0.316 µM, first compound 3.16 µM", "result": 39.9, "unit": "%"}, {"measurement": "viability, T/C", "setting": "second compound 0.316 µM, first compound 10 µM", "result": 28.4, "unit": "%"}, {"measurement": "viability, T/C", "setting": "second compound 1 µM, first compound 0.0316 µM", "result": 65.2, "unit": "%"}, {"measurement": "viability, T/C", "setting": "second compound 1 µM, first compound 0.1 µM", "result": 51.5, "unit": "%"}, {"measurement": "viability, T/C", "setting": "second compound 1 µM, first compound 0.316 µM", "result": 47.7, "unit": "%"}, {"measurement": "viability, T/C", "setting": "second compound 1 µM, first compound 1 µM", "result": 43.6, "unit": "%"}, {"measurement": "viability, T/C", "setting": "second compound 1 µM, first compound 3.16 µM", "result": 35.9, "unit": "%"}, {"measurement": "viability, T/C", "setting": "second compound 1 µM, first compound 10 µM", "result": 27, "unit": "%"}, {"measurement": "viability, T/C", "setting": "second compound 3.16 µM, first compound 0.0316 µM", "result": 67, "unit": "%"}, {"measurement": "viability, T/C", "setting": "second compound 3.16 µM, first compound 0.1 µM", "result": 53, "unit": "%"}, {"measurement": "viability, T/C", "setting": "second compound 3.16 µM, first compound 0.316 µM", "result": 45.4, "unit": "%"}, {"measurement": "viability, T/C", "setting": "second compound 3.16 µM, first compound 1 µM", "result": 43.5, "unit": "%"}, {"measurement": "viability, T/C", "setting": "second compound 3.16 µM, first compound 3.16 µM", "result": 35.3, "unit": "%"}, {"measurement": "viability, T/C", "setting": "second compound 3.16 µM, first compound 10 µM", "result": 30.4, "unit": "%"}, {"measurement": "viability, T/C", "setting": "second compound 10 µM, first compound 0.0316 µM", "result": 62.9, "unit": "%"}, {"measurement": "viability, T/C", "setting": "second compound 10 µM, first compound 0.1 µM", "result": 53, "unit": "%"}, {"measurement": "viability, T/C", "setting": "second compound 10 µM, first compound 0.316 µM", "result": 49.4, "unit": "%"}, {"measurement": "viability, T/C", "setting": "second compound 10 µM, first compound 1 µM", "result": 41.8, "unit": "%"}, {"measurement": "viability, T/C", "setting": "second compound 10 µM, first compound 3.16 µM", "result": 37, "unit": "%"}, {"measurement": "viability, T/C", "setting": "second compound 10 µM, first compound 10 µM", "result": 30.5, "unit": "%"}]}
